Measured values as given in patent publication US5473074A, “Adenosine diphosphoribose polymerase binding nitroso aromatic compounds useful as retroviral inactivating agents, anti-retroviral agents and anti-tumor agents-54” (priority 1992, dated 1995).
“Also recorded” adds a separate entry of the source. Read-outs that look alike come from different tables or passages of the source.

Tests used:
[1] = test system: human leukemia cell lines (855-2, H9, HL-60, K562); assay: [3H]thymidine uptake, human leukemia cell lines (FIG. 2); type: cell-based
Method: FIGS. 2A-2F are composite of graphs displaying the inhibitory effects of the ADRPT ligands on (FIG. 2A) 855-2 cells (a cell line of human B-cell lineage acute lymphoblastic leukemia), (FIG. 2B) H9 cells (a cell line of human T-cell lineage acute lymphoblastic leukemia), (FIG. 2C) HL-60 cells (a cell line of human acute nonlymphoblastic leukemia) and (FIG. 2D) K562 cells (a cell line of human chronic myelogenous leukemia). These cells were cultured while under the influence of the growth factors in 10% fetal bovine serum (FCS), whereas in (FIG. 2E) and (FIG. 2F) the 855-2 cells were cultured in the presence of autocrine growth factor activity (AGF) or low molecular weight-B-cell growth factor (BCGF, a T-cell derived lymphokine), respectively.

H9 cells = assay: [3H]thymidine uptake, H9 cells; type: cell-based, human; details: 10% FCS
K562 cells = assay: [3H]thymidine uptake, K562 cells; type: cell-based, human; details: 10% fetal bovine serum
855-2 cells [2] = assay: [3H]thymidine uptake / growth, 855-2 cells; type: cell-based, human
855-2 cells [3] = assay: Colony formation (CFU) in semi-solid medium, 855-2; type: cell-based, human; details: single cells in semi-solid medium
HL-60 cells = assay: Colony formation (CFU) in semi-solid medium, HL-60; type: cell-based, human; details: single cells in semi-solid medium
[4] = test system: cancer cells (855-2 and HL-60 leukemia, D32, D37 and CRL 7712 glioblastoma, 186 medulla tumor, L1210 murine leukemia, MDA-468 human breast tumor); assay: Functions of cancer cells in absence or presence of compounds (FIGS. 4-9); type: cell-based
Method: (§1) Experiments were performed in which the functions of various cancer cells (855-2 and HL-60 leukemia cells, D32, D37 and CRL 7712 glioblastoma cell lines, 186 medulla tumor cell line, L1210 murine leukemia cell line, MDA-468 human breast tumor cell line) and normal cells (neutrophil leukocytes and bone marrow or peripheral blood stream cells) were assessed in the absence or presence of the compounds.

[5] = test system: normal human stem cells (PBSC); assay: Colony formation (CFU-GM) of normal human stem cells (PBSC), FIG. 5B; type: cell-based; details: 0, 2, 4, 8 and 10 μM
855-2 leukemia cells = assay: 855-2 growth inhibition, comparison with vincristine (FIG. 7); type: cell-based, human
Method: Vincristine, a highly toxic chemotherapeutic compound, is currently used in the treatment of leukemia and other malignancies. […] Vincristine was tested in doses of 0.1, 1, 10 and 100 μM.

HIV-1 = assay: Anti-HIV action on stimulated human lymphoblasts, virus titer; type: cell-based; details: 30 min exposure, virus alone 5.25
Method: VIII. Anti-HIV action of NOBP, NOBA and NOQ on stimulated human lymphoblasts
Exposure to the two drugs was only for 30 minutes at the commencement of viral infection, and drugs were never re-added. The results given in Table III provide the ID50 of HIV titer 10 days after infection of cell cultures with HIV.

855-2 cells [6] = assay: MTT assay, cytocidal activity; type: cell-based, human; details: 10 μM, 100,000 cells/ml
Method: MTT (3-[4,5-[…]]-2,5-diphenyltetrazolium bromide) at 1 mg/ml was then added for 16 hours. The absorbance of the pelleted cell was then measured at 550 nm after adding DMSO to solubilze the cells.

cells / HIV = assay: Anti-tumor / anti-HIV (biological) action, general statement
[7] = test system: normal cells (neutrophil leukocytes and bone marrow or peripheral blood stem cells)
Method: as §1

[8] = test system: human peripheral blood neutrophil leukocytes
[9] = test system: human peripheral blood neutrophil leukocytes; assay: Superoxide generation by human neutrophils; details: 10 μM; 10^5 PMN + PMA (control 55.9 ± 7.7)
calf thymus ADPRT = calf thymus ADPRT (Bos taurus, UniProt P18493); assay: ADPRT polymerase activity inhibition/inactivation (I50)
calf thymus ADPRT, sequence (P18493 whole entry): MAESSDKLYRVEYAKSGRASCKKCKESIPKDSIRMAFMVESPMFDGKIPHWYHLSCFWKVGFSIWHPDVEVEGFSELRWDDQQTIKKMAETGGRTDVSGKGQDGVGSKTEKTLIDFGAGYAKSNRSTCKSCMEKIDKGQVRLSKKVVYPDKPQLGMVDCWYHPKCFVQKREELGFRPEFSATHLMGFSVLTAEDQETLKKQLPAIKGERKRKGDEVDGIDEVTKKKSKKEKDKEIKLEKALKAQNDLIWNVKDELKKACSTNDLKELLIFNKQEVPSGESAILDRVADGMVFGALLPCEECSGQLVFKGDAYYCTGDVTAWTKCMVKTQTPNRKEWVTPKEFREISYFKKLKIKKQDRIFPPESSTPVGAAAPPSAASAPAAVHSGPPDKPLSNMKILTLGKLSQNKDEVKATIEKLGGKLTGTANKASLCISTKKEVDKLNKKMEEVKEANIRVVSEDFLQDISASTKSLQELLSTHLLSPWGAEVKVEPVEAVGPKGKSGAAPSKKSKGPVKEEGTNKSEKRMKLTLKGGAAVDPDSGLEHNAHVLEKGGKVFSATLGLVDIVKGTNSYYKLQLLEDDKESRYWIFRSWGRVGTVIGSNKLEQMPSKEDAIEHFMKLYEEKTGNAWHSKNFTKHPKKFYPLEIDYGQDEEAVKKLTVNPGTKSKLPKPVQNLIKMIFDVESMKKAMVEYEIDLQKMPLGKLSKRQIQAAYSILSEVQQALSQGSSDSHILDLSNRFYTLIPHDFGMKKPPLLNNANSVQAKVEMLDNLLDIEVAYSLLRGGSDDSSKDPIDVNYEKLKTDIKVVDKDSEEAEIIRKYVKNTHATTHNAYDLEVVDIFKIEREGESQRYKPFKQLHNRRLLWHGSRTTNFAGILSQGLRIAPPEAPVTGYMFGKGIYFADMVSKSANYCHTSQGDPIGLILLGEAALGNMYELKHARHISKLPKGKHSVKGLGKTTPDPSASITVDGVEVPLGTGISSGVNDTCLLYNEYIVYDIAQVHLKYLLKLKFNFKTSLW
Method: The compounds of the subject invention were tested for their ability to inactivate the polymerase activity of adenosinediphosphoribosyl transferase (ADPRT). Assays were performed according to the method of Buki and Kun, Biochem. 27:5990-5995 (1988), using calf thymus ADPRT.
Assay conditions: ADPRT, 0.4 μg; coDNA, 4 μg; inhibitor diluted
between 0.8 and 600 μM, in 50 μl of 50 mM TrisHCl, 50 mM KCl, 5 mM
2mercaptoethanol, 0.5 mM EDTA, 0.1 mM NAD ([32Plabelled), pH 7.5.
Polymerization at 25° C. for 4 minutes.

[10] = target: Zn(HIV1-F1), N-terminal CCHC zinc finger of the HIV-1 NC protein (Human immunodeficiency virus type 1 lw12.3 isolate, UniProt Q70622); details: Summers, et al.; cited from earlier work
ADPRT = details: cited from earlier work
[11] = test system: normal rhesus bone marrow stem cells; assay: CFU stem cell toxicity assay, FIG. 5A
[12] = not told
[13] = test system: malignant transformation / neoplasia; details: in vitro and in vivo; Tseng, et al.; cited from earlier work

O=Nc1ccc2oc(=O)ccc2c1 [NOBP, 6-nitroso-1,2-benzopyrone]
inhibition of 3H-thymidine uptake, in words ([1]; 10 μM, 855-2, H9, HL-60, K562 cells): powerfully inhibited 3H-thymidine uptake | molar concentrations needed to inhibit 3H-thymidine uptake, in words ([1]; each of the cell lines tested): able to inhibit 3H-thymidine uptake in lower molar concentrations than the other compounds | inhibition of thymidine uptake, H9 (H9 cells; 100 μM): almost complete inhibition | inhibition at 10 µM (H9 cells; Homo sapiens, H9, 10 μM): ~30% | inhibition of cell growth (thymidine uptake), K562 (K562 cells; 100 μM): almost complete inhibition | relative potency, K562 (K562 cells): most potent inhibitors of cell growth; also recorded: almost as potent as NOQ | relative inhibition of thymidine uptake, 855-2 (855-2 cells [2]; 1 μM, 10% fetal bovine serum): somewhat more inhibition than NOBA | inhibition of thymidine uptake, 855-2 (855-2 cells [2]; 10 μM, 10% fetal bovine serum): almost complete inhibition | growth arrest of 855-2 cells at increasing serum concentration (855-2 cells [2]; 10 μM, increasing FCS): Growth arrest occurs irrespective of the concentration of FCS | relative potency, 855-2 (855-2 cells [2]; 10% fetal bovine serum): potent inhibitory effects regardless of the source of growth factor activity | colony formation, 855-2, in words (855-2 cells [3]): inhibit the ability of human leukemic cells (855-2 and HL-60) to form colonies | colony formation, HL-60, in words (HL-60 cells): inhibit the ability of human leukemic cells (855-2 and HL-60) to form colonies | activity against tumor cells, in words [4]: highly effective (against tumor cells) | cytotoxicity on CFU-GM of PBSC, in words [5]: Toxicity was not detected | potency relative to vincristine (855-2 leukemia cells; vs equal concentration of vincristine): about 10 times more potent | Virus Titer (log ID50), 10 days (HIV-1; 10 μM): 2.01 log ID50 | killing of 855-2 cells (MTT), in words (855-2 cells [6]): complete killing | anti-tumor and anti-HIV activity, in words (cells / HIV): highly active as anti-tumor and anti-HIV molecules | effectiveness after short exposure of cells (cells / HIV; exposure as short as 30 minutes): effective even after exposure of cells for a period as short as 30 minutes | effect on normal stem cell colony formation (FIG. 5), in words [7]: minimal effect on normal cells | effect on viability of normal cells, in words [7]: not to affect adversely the viability of normal cells | toxicity to normal cells, in words [7]: not toxic to normal cells | superoxide generation, in words [8]: Only minor reductions in superoxide generation | superoxide generation by human neutrophils (mean + S.D., n = 11) [9]: 34.1 ± 14.1 nmol O2^- /hr/10^5 cells | IC50 (calf thymus ADPRT): 40 µM

O=C(O)CN(CCN(CC(=O)O)CC(=O)O)CC(=O)O [EDTA]
molar excess required to remove zinc from Zn(HIV-1-F1) [10]: 10 -fold molar excess

Nc1ccc2oc(=O)ccc2c1I [IABP, 5-iodo-6-amino-1,2-benzopyrone]
Virus Titer (log ID50), 10 days (HIV-1; 250 μM): 4.66 log ID50 | inhibition of ADPRT polymerase activity, in words (ADPRT): known ADPRT polymerase activity inhibitors | CFU stem cell toxicity, in words ([11]; 250 μM): toxic at the tested given doses | IC50 (calf thymus ADPRT): 41 µM

CC[C@]1(O)C[C@H]2CN(CCc3c([nH]c4ccccc34)[C@@](C(=O)OC)(c3cc4c(cc3OC)N(C=O)[C@H]3[C@@](O)(C(=O)OC)[C@H](OC(C)=O)[C@]5(CC)C=CCN6CC[C@]43[C@@H]65)C2)C1 [vincristine, reference compound]
concentration required to produce the same level of inhibition as 10 μM NOBP (855-2 leukemia cells; in vitro): 100 µM

NC(=O)c1ccccc1 [benzamide]
inhibition of ADPRT polymerase activity, in words (ADPRT): known to inhibit ADPRT polymerase activity

O=c1c(O)c(-c2ccc(O)c(O)c2)oc2cc(O)cc(O)c12 [quercetin]
inhibition of ADPRT polymerase activity, in words (ADPRT): known to inhibit ADPRT polymerase activity

O=c1ccc2cc([N+](=O)[O-])ccc2o1 [NO2 BP, 6-nitro-1,2-benzopyrone]
activity against tumor cells, in words [4]: weakly active | activity against tumor cells, in words ([4]; listed as 6-nitro derivative): almost ineffective (against tumor cells) | Virus Titer (log ID50), 10 days (HIV-1; 250 μM): 4.93 log ID50

O=Nc1ccc2oc(=O)ccc2c1I [5-I-6-NO-1,2-benzopyrone, 5-iodo-6-nitroso-1,2-benzopyrone]
biological action relative to 6-NO-1,2-benzopyrone (cells / HIV; vs 6-NO-1,2-benzopyrone): 10 times weaker | permeation, in words [12]: poor permeant molecule | ADPRT inhibition, in words (calf thymus ADPRT): relatively poor inhibitor of ADRPT | IC50 (calf thymus ADPRT): 400 µM

3-aminonaphthylhydrazide
inhibition of ADPRT polymerase activity, in words (ADPRT): known to inhibit ADPRT polymerase activity

c1ccc2cnccc2c1 [isoquinoline]
inhibition of ADPRT polymerase activity, in words (ADPRT): known to inhibit ADPRT polymerase activity

Nc1ccc2oc(=O)ccc2c1 [ABP, 6-amino-1,2-benzopyrone]
Virus Titer (log ID50), 10 days (HIV-1; 500 μM): 4.50 log ID50 | ADPRT binding, in words (ADPRT; site that also binds to DNA, Hakam, et al.): binds specifically to ADRPT at the site that also binds to DNA | CFU stem cell toxicity, in words ([11]; 1 mM): toxic at the tested given doses | IC50 (calf thymus ADPRT): 370 µM

O=c1ccc2ccccc2o1 [coumarin (1,2-benzopyrone), 1,2-benzopyrone]
inhibition of ADPRT polymerase activity, in words (ADPRT): known to inhibit ADPRT polymerase activity | inhibition of ADPRT polymerase activity, in words (ADPRT; listed as 1,2-benzopyrone (coumarin)): inhibitory ligand of adenosinediphosphoribosyl transferase (ADPRT) | anti-transforming and anti-neoplastic effect, in words [13]: anti-transforming and anti-neoplastic effect
